Six compounds from ChEMBL document CHEMBL1138190, “Synthesis and antibacterial activity of novel C12 vinyl ketolides” (J Med Chem, 2006) can be followed below.

≈ marks a conversion by molar mass, not a printed value.

Common to all, as to format: functional
For assay [1], the system named is Staphylococcus epidermidis. The assay is described as follows: Antibacterial activity against Staphylococcus epidermidis 14990.
Assay [2] concerns Streptococcus pneumoniae. Nature of the assay: Antibacterial activity against Streptococcus pneumoniae Mef S 3427.
In assay [3] the test system is Enterococcus faecalis. The assay is described as follows: Antibacterial activity against Enterococcus faecalis bc11148-2.
Assay [4] relates to Haemophilus influenzae. The assay is described as follows: Antibacterial activity against Haemophilus influenzae 49247.
For assay [5], the system named is Streptococcus pneumoniae. Nature of the assay: Antibacterial activity against Streptococcus pneumoniae 280-962.
Assay [6] has as its system Staphylococcus aureus. Nature of the assay: Antibacterial activity against Staphylococcus aureus 29213.
Assay [7] has as its system Streptococcus pneumoniae. The assay is described as follows: Antibacterial activity against Streptococcus pneumoniae 297-749.
Assay [8] concerns Streptococcus pneumoniae. Nature of the assay: Antibacterial activity against Streptococcus pneumoniae 49619.
Assay [9] concerns Staphylococcus aureus. The assay is described as follows: Antibacterial activity against Staphylococcus aureus 33591.
In assay [10] the test system is Streptococcus pyogenes. The assay is described as follows: Antibacterial activity against Streptococcus pyogenes 8668.
Assay [11] relates to Haemophilus influenzae. Nature of the assay: Antibacterial activity against Haemophilus influenzae 2762.
Assay [12] has as its system Enterococcus faecalis. Nature of the assay: Antibacterial activity against Enterococcus faecalis 29212.
The test system of assay [13] is Streptococcus pneumoniae. Nature of the assay: Antibacterial activity against Streptococcus pneumoniae Mef 5654.
Assay [14] relates to Streptococcus pneumoniae. Nature of the assay: Antibacterial activity against Streptococcus pneumoniae Erm 6849.
Assay [15] relates to Staphylococcus epidermidis. Nature of the assay: Antibacterial activity against Staphylococcus epidermidis f50654.

With `C=C[C@]12OC(=O)N(CCCCn3cnc4cccnc43)[C@@H]1[C@@H](C)C(=O)[C@H](C)C[C@@](C)(OC)[C@H](O[C@@H]1O[C@H](C)C[C@H](N(C)C)[C@H]1O)[C@@H](C)C(=O)[C@@H](C)C(=O)O[C@@H]2CC`, the MIC is 0.1 µg/mL (≈ 0.125 µM) in assay [1]; 0.1 µg/mL (≈ 0.125 µM) in assay [2]; 0.78 µg/mL (≈ 0.977 µM) in [3]; 1.56 µg/mL (≈ 1.95 µM) in assay [4]; at most 0.05 µg/mL in [5]; 0.2 µg/mL (≈ 0.251 µM) in assay [6]. Also, the MIC was at most 0.05 µg/mL in assay [7]; at most 0.05 µg/mL in assay [8]; above 50 µg/mL in assay [9]; at most 0.05 µg/mL in [10]; 0.78 µg/mL (≈ 0.977 µM) in assay [11]; 0.1 µg/mL (≈ 0.125 µM) in assay [12]. Further, the figures for the MIC in assay [13], in assay [14] and in [15] were 0.78 µg/mL (≈ 0.977 µM), 12.5 µg/mL (≈ 15.7 µM) and 0.2 µg/mL (≈ 0.251 µM), respectively.
As for `C=C[C@]12OC(=O)N(CCCCn3cnc(-c4cnc(C)cn4)c3)[C@@H]1[C@@H](C)C(=O)[C@H](C)C[C@@](C)(OC)[C@H](O[C@@H]1O[C@H](C)C[C@H](N(C)C)[C@H]1O)[C@@H](C)C(=O)[C@@H](C)C(=O)O[C@@H]2CC`, the MIC was 0.2 µg/mL (≈ 0.238 µM) in assay [1]; 0.2 µg/mL (≈ 0.238 µM) in assay [2]; 0.78 µg/mL (≈ 0.93 µM) in assay [3]; 3.13 µg/mL (≈ 3.73 µM) in assay [4]; at most 0.05 µg/mL in assay [5]; 0.1 µg/mL (≈ 0.119 µM) in assay [6]. In addition, the MIC in assay [7] was at most 0.05 µg/mL; in assay [8], at most 0.05 µg/mL; in [9] it was above 50 µg/mL; in assay [10] it was at most 0.05 µg/mL; in assay [11] it was 0.78 µg/mL (≈ 0.93 µM); in assay [12], 0.1 µg/mL (≈ 0.119 µM). Besides, the MIC in [13] worked out at 0.78 µg/mL (≈ 0.93 µM); in [14], 0.2 µg/mL (≈ 0.238 µM); in [15], 0.1 µg/mL (≈ 0.119 µM).
As to `C=C[C@]12OC(=O)N(CCCCn3cnc4c(C)ncnc43)[C@@H]1[C@@H](C)C(=O)[C@H](C)C[C@@](C)(OC)[C@H](O[C@@H]1O[C@H](C)C[C@H](N(C)C)[C@H]1O)[C@@H](C)C(=O)[C@@H](C)C(=O)O[C@@H]2CC`, the MIC in assay [1] is 0.1 µg/mL (≈ 0.123 µM); in assay [2] it was 0.2 µg/mL (≈ 0.246 µM); in assay [3], 0.4 µg/mL (≈ 0.492 µM); in [4], 3.13 µg/mL (≈ 3.85 µM); in assay [5] it was at most 0.05 µg/mL; in assay [6], 0.1 µg/mL (≈ 0.123 µM). The MIC was at most 0.05 µg/mL in assay [7]; at most 0.05 µg/mL in assay [8]; above 50 µg/mL in assay [9]; at most 0.05 µg/mL in assay [10]; 0.78 µg/mL (≈ 0.959 µM) in [11]; at most 0.05 µg/mL in [12]. The MIC in assay [13] is 0.78 µg/mL (≈ 0.959 µM); in [14], above 50 µg/mL; in assay [15], 0.1 µg/mL (≈ 0.123 µM).
As for `C=C[C@]12OC(=O)N(CCCC(C)(C)n3cnc4ncccc43)[C@@H]1[C@@H](C)C(=O)[C@H](C)C[C@@](C)(OC)[C@H](O[C@@H]1O[C@H](C)C[C@H](N(C)C)[C@H]1O)[C@@H](C)C(=O)[C@@H](C)C(=O)O[C@@H]2CC`, the MIC in assay [1] was 0.2 µg/mL (≈ 0.242 µM); in assay [2], 0.2 µg/mL (≈ 0.242 µM); in assay [3] it was 0.4 µg/mL (≈ 0.484 µM); in [4], 6.25 µg/mL (≈ 7.57 µM); in assay [5], at most 0.05 µg/mL; in assay [6] it was 0.2 µg/mL (≈ 0.242 µM). For the same compound, the MIC in [7] is at most 0.05 µg/mL; in assay [8], at most 0.05 µg/mL; in assay [9], above 50 µg/mL; in assay [10], at most 0.05 µg/mL; in assay [11] it was 0.78 µg/mL (≈ 0.944 µM); in assay [12] it was 0.1 µg/mL (≈ 0.121 µM). For the same compound, the MIC came out at 0.78 µg/mL (≈ 0.944 µM) in assay [13], 0.1 µg/mL (≈ 0.121 µM) in [14] and 0.1 µg/mL (≈ 0.121 µM) in [15].
Take `C=C[C@]12OC(=O)N(CCN(C)Cc3ccnc(-c4cccnc4)c3)[C@@H]1[C@@H](C)C(=O)[C@H](C)C[C@@](C)(OC)[C@H](O[C@@H]1O[C@H](C)C[C@H](N(C)C)[C@H]1O)[C@@H](C)C(=O)[C@@H](C)C(=O)O[C@@H]2CC`: the MIC was 0.2 µg/mL (≈ 0.235 µM) in [1]; 0.1 µg/mL (≈ 0.118 µM) in assay [2]; 0.2 µg/mL (≈ 0.235 µM) in assay [3]; 6.25 µg/mL (≈ 7.35 µM) in assay [4]; at most 0.05 µg/mL in assay [5]; 0.2 µg/mL (≈ 0.235 µM) in assay [6]. Besides, the MIC in assay [7] is at most 0.05 µg/mL; in assay [8], at most 0.05 µg/mL; in [9], above 50 µg/mL; in assay [10], at most 0.05 µg/mL; in assay [11] it was 3.13 µg/mL (≈ 3.68 µM); in assay [12], 0.1 µg/mL (≈ 0.118 µM). Moreover, the MIC is 0.4 µg/mL (≈ 0.471 µM) in assay [13], at most 0.05 µg/mL in assay [14] and 0.2 µg/mL (≈ 0.235 µM) in assay [15].
On to `C=C[C@]12OC(=O)N(CCCCn3cnc(-c4cnccn4)c3)[C@@H]1[C@@H](C)C(=O)[C@H](C)C[C@@](C)(OC)[C@H](O[C@@H]1O[C@H](C)C[C@H](N(C)C)[C@H]1O)[C@@H](C)C(=O)[C@@H](C)C(=O)O[C@@H]2CC`, for which the MIC is 0.1 µg/mL (≈ 0.121 µM) in [1]; 0.1 µg/mL (≈ 0.121 µM) in [2]; 0.4 µg/mL (≈ 0.485 µM) in [3]; 3.13 µg/mL (≈ 3.79 µM) in [4]; at most 0.05 µg/mL in assay [5]; 0.2 µg/mL (≈ 0.242 µM) in assay [6]. In addition, the MIC was at most 0.05 µg/mL in assay [7]; at most 0.05 µg/mL in [8]; above 50 µg/mL in assay [9]; at most 0.05 µg/mL in assay [10]; 1.56 µg/mL (≈ 1.89 µM) in assay [11]; 0.1 µg/mL (≈ 0.121 µM) in assay [12]. Further, the MIC was found to be 0.78 µg/mL (≈ 0.945 µM) in assay [13], 0.2 µg/mL (≈ 0.242 µM) in [14] and 0.2 µg/mL (≈ 0.242 µM) in [15].
